For one assay, the target named is T1, human CB1 receptors (Homo sapiens, UniProt P21554).
T1 construct: expressed in transfected cells; host or cells: CHO cells
Nature of the assay: cAMP assay. The assay is classed as cell-based. The method, boiled down: (§1)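 CHO cells expressing human CB1 or CB2 were preincubated 30 min at 30 °C in Krebs Ringer bicarbonate buffer with 1 mM IBMX, then exposed to compounds for 30 min at 30 °C. cAMP was measured by time-resolved FRET against a cAMP standard curve, and EC50 values were derived.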
On the technique in general: cAMP levels reflect the balance of adenylyl cyclase and phosphodiesterase activity.

For a further assay, the target named is T2, human CB2 receptors (Homo sapiens, UniProt P34972).
T2 construct: expressed in transfected cells; host or cells: CHO cells
T2 sequence (P34972 whole entry): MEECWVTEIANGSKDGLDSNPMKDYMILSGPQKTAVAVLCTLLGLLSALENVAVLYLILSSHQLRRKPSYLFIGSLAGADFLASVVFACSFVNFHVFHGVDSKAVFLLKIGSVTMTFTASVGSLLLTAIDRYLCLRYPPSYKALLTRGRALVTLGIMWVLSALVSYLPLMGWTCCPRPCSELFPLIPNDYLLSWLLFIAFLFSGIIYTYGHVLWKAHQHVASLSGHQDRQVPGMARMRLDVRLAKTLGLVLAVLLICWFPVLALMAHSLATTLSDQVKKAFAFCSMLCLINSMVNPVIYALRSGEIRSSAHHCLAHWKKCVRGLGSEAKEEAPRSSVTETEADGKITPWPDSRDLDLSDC
Nature of the assay: cAMP assay. In kind it is cell-based. In outline:
as §1

[1] abbreviates: functional cAMP assay, CHO cells expressing human CB2, read-out: human CB2 EC50.

Where two headings read alike, the source gives them in different places. Where only a bound is given, the exact number is not on record here.

T1 sequence (P21554 whole entry): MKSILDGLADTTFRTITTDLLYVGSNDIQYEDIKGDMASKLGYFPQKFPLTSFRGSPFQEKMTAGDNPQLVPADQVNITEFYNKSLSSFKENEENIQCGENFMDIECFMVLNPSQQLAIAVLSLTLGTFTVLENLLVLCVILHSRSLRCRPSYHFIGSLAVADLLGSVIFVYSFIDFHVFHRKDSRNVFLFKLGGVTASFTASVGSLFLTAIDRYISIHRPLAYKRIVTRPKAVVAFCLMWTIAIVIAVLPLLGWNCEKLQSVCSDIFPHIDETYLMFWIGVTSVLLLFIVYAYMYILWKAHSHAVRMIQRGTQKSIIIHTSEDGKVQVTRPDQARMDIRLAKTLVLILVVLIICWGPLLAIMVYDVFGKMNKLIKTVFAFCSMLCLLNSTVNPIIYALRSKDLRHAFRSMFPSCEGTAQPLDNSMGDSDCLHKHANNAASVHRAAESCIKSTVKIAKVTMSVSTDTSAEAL

The EC50 is the concentration needed to bring the measured effect to its halfway point. On to `CC(=O)N[C@H]1CCN(c2nc(O[C@@H](C)C(F)(F)F)nc3nn(Cc4ccccc4Cl)nc23)C1` [Example 141, N—{(S)-1-[2-(2-Chloro-benzyl)-5-((S)-2,2,2-trifluoro-1-methyl-ethoxy)-2H-[1,2,3]triazolo[4,5-d]pyrimidin-7-yl]-pyrrolidin-3-yl}-acetamide], for which the EC50 at human CB1 receptors is above 10000 nM; at human CB2 receptors (setting [1]) it was 1150 nM.
In the case of `CC(C)(C)c1nc(N2CCC(F)(F)C2)c2nn(CC(=O)c3cccc(Cl)c3)nc2n1` [Example 52, 2-[5-tert-Butyl-7-(3,3-difluoro-pyrrolidin-1-yl)-[1,2,3]triazolo[4,5-d]pyrimidin-2-yl]-1-(3-chloro-phenyl)-ethanone], the EC50 at human CB1 receptors was above 10000 nM; at human CB2 receptors, 13 nM.
For `O[C@H]1CCN(c2nc(OCC(F)(F)F)nc3nn(Cc4ccccc4Cl)nc23)C1` [Example 109, (S)-1-[2-(2-Chloro-benzyl)-5-(2,2,2-trifluoro-ethoxy)-2H-[1,2,3]triazolo[4,5-d]pyrimidin-7-yl]-pyrrolidin-3-ol], the EC50 on human CB1 receptors is above 10000 nM; on human CB2 receptors (setting [1]) it was 107 nM.
As for `CC(C)(C)c1nc(N2CCC(F)(F)C2)c2nn(Cc3nccc(Cl)c3Cl)nc2n1` [Example 61, 5-tert-Butyl-2-(3,4-dichloro-pyridin-2-ylmethyl)-7-(3,3-difluoro-pyrrolidin-1-yl)-2H-[1,2,3]triazolo[4,5-d]pyrimidine], the EC50 is above 10000 nM on human CB1 receptors and 2.6 nM at human CB2 receptors.
On to `CC(C)(C)c1nc(N2CCC(F)(F)C2)c2nn(Cc3cccnc3)nc2n1` [Example 16, 5-tert-Butyl-7-(3,3-difluoro-pyrrolidin-1-yl)-2-pyridin-3-ylmethyl-2H-[1,2,3]triazolo[4,5-d]pyrimidine], for which the EC50 is above 10000 nM at human CB1 receptors and 3.9 nM at human CB2 receptors.
With `CC(C)(C)c1nc(N2CCC(F)(F)C2)c2nn(Cc3c(Cl)ccnc3Cl)nc2n1` [Example 44, 5-tert-Butyl-2-(2,4-dichloro-pyridin-3-ylmethyl)-7-(3,3-difluoro-pyrrolidin-1-yl)-2H-[1,2,3]triazolo[4,5-d]pyrimidine], the results for the EC50 on human CB1 receptors and on human CB2 receptors were 454 nM and 0.2 nM, respectively.

The record behind these values is patent US9067943B2, “[1,2,3]triazolo[4,5-D]pyrimidine derivatives” (priority 2011, dated 2015).
